{"source": "patent US4263286A", "about": "“Therapeutic agent for consciousness disorder and perception and movement disorder” (Nippon Shoji Kaisha, Ltd., priority 1978, dated 1981)", "key": {"[1]": {"tested_on": "rabbits whose internal capsule was destroyed", "details": "known therapeutic agents; already confirmed by experiments; cited from earlier work"}, "[2]": {"tested_on": "male mice", "experiment": "Toxicity in male mice, tail intravenous", "format": "in vivo, mouse", "details": "100 mg/kg tail intravenous over 30 seconds; observed 75 hours"}, "[3]": {"tested_on": "sciatic nerve", "experiment": "Afferent evoked potential in the cerebral cortex in response to stimulation of the sciatic nerve", "format": "in vivo", "procedure": "In order to test the effect of the active compound of the present invention on perception, an experiment was carried out on afferent evoked potential in response to stimulation of the sciatic nerve.\nWhen the sciatic nerve is stimulated, the potential evoked in the cerebral cortex is recorded and summed up. These evoked electric potentials are firstly three small negative responses, subsequently a positive response and followed by two large negative responses, which are designated as N1, N2, N3, P, N4 and N5, respectively.\nIn order to examine the effect of a compound of the present invention: dilinoleoylphosphatidic acid disodium salt on these components, N1, N2, N3, P, N4 and N5, sciatic nerve was simulated once per 1 second and the data of 50 times of stimulus were recorded and summed up. The results are shown in the accompanying FIGS. 15, 16, 17, 18, 19 and 20 which correspond to the data of N1, N2, N3, P, N4 and N5, respectively."}, "[4]": {"tested_on": "Spragne-Dowley rats", "experiment": "7-day toxicity in rats", "details": "rat, in vivo"}, "[5]": {"tested_on": "ICR mice", "experiment": "7-day toxicity in ICR mice", "details": "mouse, in vivo"}}, "note": "Where a name gives a salt, the structure may show the parent alone.", "data": [{"compound": "C[N+](C)(C)CCOP(=O)(O)OP(=O)([O-])OC[C@H]1O[C@@H](n2ccc(N)nc2=O)[C@H](O)[C@@H]1O", "note": "[Citicoline, cytidine diphosphate choline]", "values": [{"measurement": "effect on thresholds of evoked muscular discharge in fore- and hind-limbs", "setting": "[1]", "value": "decreasing effect of the thresholds of evoked muscular discharge"}]}, {"compound": "CN(C)CCOC(=O)COc1ccc(Cl)cc1.Cl", "note": "[Meclofenoxate hydrochloride, (4-chlorophenoxy)acetic acid 2-(dimethylamino)ethyl ester hydrochloride]", "values": [{"measurement": "effect on thresholds of evoked muscular discharge in fore- and hind-limbs", "setting": "[1]", "value": "decreasing effect of the thresholds of evoked muscular discharge"}]}, {"compound": "Cc1ncc(CSSCc2cnc(C)c(O)c2CO)c(CO)c1O", "note": "[Pyrithioxin, 3,3'-(dithiodimethylene)-bis[5-hydroxy-6-methyl-4-pyridinemethanol]]", "values": [{"measurement": "effect on thresholds of evoked muscular discharge in fore- and hind-limbs", "setting": "[1]", "value": "decreasing effect of the thresholds of evoked muscular discharge"}]}, {"compound": "CCCCC/C=C\\C/C=C\\CCCCCCCC(=O)OCC(COP(=O)(O)O)OC(=O)CCCCCCC/C=C\\C/C=C\\CCCCC", "note": "(centres unmarked) [dilinoleoylphosphatidic acid disodium salt]", "values": [{"measurement": "mortality", "setting": "[2]", "value": "no mouse was died"}, {"measurement": "effect on the afferent pathway", "setting": "[3]; in vivo", "value": "facilitatory effect on the afferent pathway"}, {"measurement": "effect on evoked potential components N1 and N2", "setting": "[3]; stimulation once per 1 second, 50 summed, FIGS. 15, 16", "value": "facilitatory effect on the components, N1 and N2, particularly on N1"}]}, {"compound": "Cytochrome C: already used as therapeutic agent for the treatment of consciousness disorder and perception and movement disorder", "values": [{"measurement": "effect on thresholds of evoked muscular discharge in fore- and hind-limbs", "setting": "[1]", "value": "decreasing effect of the thresholds of evoked muscular discharge"}]}, {"compound": "polyenephosphatidylcholine", "values": [{"measurement": "difference between male and female", "setting": "[4]", "value": "no difference between male and female"}, {"measurement": "symptoms", "setting": "[4]", "value": "no abnormal symptom was observed except that the voluntary movement was slightly inhibited in the groups administered in a large dose"}, {"measurement": "difference between male and female", "setting": "[5]", "value": "no difference between male and female"}, {"measurement": "symptoms", "setting": "[5]", "value": "no abnormal symptom was observed except that the voluntary movement was slightly inhibited in the groups administered in a large dose"}]}]}
